# Tests used:
# [1] = biological target: T1, recombinant GST-FXR fusion protein (Homo sapiens, UniProt Q96RI1); assay: FXR activity at the molecular level (AlphaScreen); type: biochemical
# T1 sequence (Q96RI1 1-486): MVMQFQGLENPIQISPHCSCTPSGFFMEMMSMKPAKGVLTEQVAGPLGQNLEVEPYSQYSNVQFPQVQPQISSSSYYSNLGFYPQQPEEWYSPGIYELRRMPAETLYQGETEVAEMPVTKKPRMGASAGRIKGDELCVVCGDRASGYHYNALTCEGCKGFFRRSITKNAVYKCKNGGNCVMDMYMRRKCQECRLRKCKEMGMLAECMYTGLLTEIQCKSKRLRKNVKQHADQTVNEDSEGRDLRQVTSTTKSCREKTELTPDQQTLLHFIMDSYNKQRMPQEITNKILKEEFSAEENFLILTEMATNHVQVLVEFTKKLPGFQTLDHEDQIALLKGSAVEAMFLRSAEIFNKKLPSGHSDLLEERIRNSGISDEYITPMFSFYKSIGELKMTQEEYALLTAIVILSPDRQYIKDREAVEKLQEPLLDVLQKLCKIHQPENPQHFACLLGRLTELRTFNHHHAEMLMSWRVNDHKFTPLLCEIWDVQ
# Experimental: Test Method for FXR Activity at the Molecular Level
# FXR activity was determined using recombinant GST-FXR fusion protein by Perkin Elmer's AlphaScreen detection reagent. The reaction in this method was carried out in a 384-well plate, and the total reaction volume was 15 μL. The mixture of protein, agonist, co-regulatory factor, AlphaScreen® acceptor beads and AlphaScreen® donor beads was reacted in a buffer containing Tris-HCl 50 mM (pH7.4), 50 mM NaCl, BSA 0.1%, and 1 mM DTT. The FXR activity was reflected by the fluorescence signal intensity at 570 nm wavelength detected by the Envision fluorescence detector. The value of EC50 was calculated by the software Graphpad Prism 5.
# FXR receptor = biological target: T2, FXR receptor (Homo sapiens, UniProt Q96RI1); assay: FXR activity at the cell level (FXRE luciferase reporter in 293T cells); type: cell-based; settings: 293T cells; for Activity relative to OCA (%) 10 μM: luciferase reporter; for EC50: FXRE luciferase reporter, read-out: EC50 (cell level)
# T2 construct: expressed in transfected cells; host or cells: 293T cells
# T2 sequence (Q96RI1 1-486): T1 sequence (Q96RI1 1-486)
# Experimental: The cells were cultured for 24 hours to ensure plasmid expression. Then the FXR receptor agonist to be tested was added and acted for 18 hours. The fluorescence intensity was detected using luciferase kit (steady-Glo Luciferase Assay system) to reflect the compound's activation efficiency on the FXR receptor. […] The appropriate concentration interval was selected, and the dose-dependent relationship, that is, the EC50 value, was calculated.
Compound,EC50 [1],Activity relative to OCA (%) 10 μM (FXR receptor),EC50 (FXR receptor)
O=c1[nH]c(-c2cccc(N3CCCC(OCc4c(-c5c(Cl)cccc5Cl)noc4C4CC4)CC3)c2)no1 (stereo not drawn) [Example 3],1.81 µM,87%,0.014 µM
O=c1[nH]c(-c2cccc(N3CCC(OCc4c(-c5c(Cl)cccc5Cl)noc4C4CC4)C3)c2)no1 (stereo not drawn) [Example 5],4.7 µM,83%,0.844 µM
O=c1[nH]c(-c2ccc(N3CCC(OCc4c(-c5c(Cl)cccc5Cl)noc4C4CC4)C3)cc2)no1 (stereo not drawn) [Example 6],3.92 µM,99%,0.032 µM
O=c1[nH]c(-c2ccc(N3C4CCC3CC(OCc3c(-c5c(Cl)cccc5Cl)noc3C3CC3)C4)cc2)no1 (stereo not drawn) [Example 7],0.0067 µM,88%,0.006 µM
O=c1[nH]c(-c2ccc(N3CCC(OCc4c(-c5c(Cl)cccc5Cl)noc4-c4ccccc4)CC3)cc2)no1 [Example 12],2.88 µM,63%,0.035 µM
Cc1cc(-c2noc(=O)[nH]2)ccc1N1CCC(OCc2c(-c3c(Cl)cccc3Cl)noc2C2CC2)CC1 [Example 15],2.65 µM,159%,0.003 µM
Cn1cc(-c2noc(=O)[nH]2)c2cc(N3CCC(OCc4c(-c5c(Cl)cccc5Cl)noc4C4CC4)CC3)ccc21 [Example 19],3.14 µM,132%,0.285 µM
S=c1[nH]c(-c2ccc(N3CCC(OCc4c(-c5c(Cl)cccc5Cl)noc4C4CC4)CC3)cc2)no1 [Example 20],5.47 µM,146%,0.005 µM

# Results, then the molecule that gave them:
EC50 [1],Activity relative to OCA (%) 10 μM (FXR receptor),EC50 (FXR receptor),Compound
0.072 µM,174%,0.001 µM,O=c1[nH]c(-c2ccc(N3CCC(OCc4c(-c5c(Cl)cccc5Cl)noc4C4CC4)CC3)cc2)no1 [Example 2]
0.015 µM,97%,0.0006 µM,O=c1[nH]c(-c2ccc(N3CCCC(OCc4c(-c5c(Cl)cccc5Cl)noc4C4CC4)CC3)cc2)no1 (stereo not drawn) [Example 4]
0.055 µM,90%,0.004 µM,O=c1[nH]c(-c2ccc(N3CCC(OCc4c(-c5ccccc5OC(F)(F)F)noc4C4CC4)CC3)cc2)no1 [Example 9]
1.04 µM,202%,0.0002 µM,Cc1onc(-c2c(Cl)cccc2Cl)c1COC1CCN(c2ccc(-c3noc(=O)[nH]3)cc2)CC1 [Example 10]
0.439 µM,164%,0.0007 µM,CC(C)c1onc(-c2c(Cl)cccc2Cl)c1COC1CCN(c2ccc(-c3noc(=O)[nH]3)cc2)CC1 [Example 11]
0.178 µM,111%,0.0007 µM,O=c1[nH]c(-c2ccc(N3CCC(OCc4c(-c5c(Cl)cccc5Cl)noc4C4CC4)CC3)nc2)no1 [Example 13]
0.598 µM,74%,0.005 µM,O=c1[nH]c(-c2ccc(N3CCC(OCc4c(-c5c(Cl)cccc5Cl)noc4C4CC4)CC3)cn2)no1 [Example 14]
0.195 µM,168%,0.0002 µM,O=c1[nH]c(-c2ccc(N3CCC(OCc4c(-c5c(Cl)cccc5Cl)noc4C4CC4)CC3)cc2F)no1 [Example 16]
0.257 µM,161%,0.0003 µM,O=c1[nH]c(-c2c(F)cc(N3CCC(OCc4c(-c5c(Cl)cccc5Cl)noc4C4CC4)CC3)cc2F)no1 [Example 17]
0.614 µM,150%,0.002 µM,O=c1[nH]c(-c2ccc(N3CCC(OCc4c(-c5c(Cl)cccc5Cl)noc4C4CC4)CC3)c(F)c2)no1 [Example 18]
0.0967 µM,117%,0.00132 µM,O=c1[nH]c(-c2ccc(N3CCC(OCc4c(-c5ccccc5C(F)(F)F)noc4C4CC4)CC3)nc2)no1 [Example 21]

# — patent US12240841B2, “FXR small molecule agonist and preparation method therefor and use thereof” (Shanghai Institute of Materia Medica, Chinese Academy of …, priority 2019, dated 2025)
